Test results as given in patent US20250136563A1, “THIADIAZOLONE DERIVATIVES USEFUL AS AMPK ACTIVATOR” (Betagenon AB, priority 2021, published 2025).
Entries after “also recorded” stand apart in the source; their conditions may differ. Structures can show the parent of a compound that is named as a salt. Where two headings read alike, the source gives them in different places.

Experiments:
[1] = Single dose oral pharmacokinetic study of Compounds 5, 6, 7, 9, 10, 13, 14, 16 and 17 in Sprague Dawley rats; assay type: in vivo
Procedure: 10.0 mL of 2% w/v methyl cellulose solution in phosphate buffer (pH 7.5) was added to a 100 mL conical flask along with 1 g of 2 mm glass beads. The solution was vigorously stirred on a magnetic stirrer. 100 mg of Compound 1 was slowly added to the solution, and the solution was vigorously stirred for approximately 1 h. The pH of the formulation was measured to be 7.49. Each formulation was freshly prepared prior to administration to the animals. The final concentration of Compound 1 in of the formulation was 10 mg/mL. The formulation was administered at 5 mL/kg body weight. […]
Adult healthy male Sprague Dawley rats aged 8 to 10 weeks were used for experimentation after a minimum three days of acclimatization. Fed state animals were administered the formulation of Compound 1 or Compound 3 orally via gavage at a dose of 50 mg/kg or 65 mg/kg body weight, respectively.
Under mild isoflurane anesthesia, blood specimens were collected by retro-orbital puncture method using capillary tubes into pre-labeled tubes containing anticoagulant (K2EDTA: 2 mg/mL blood) during the next 72 hours post-dosing, as detailed in Table 6. For blood sampling at multiple time points, the right and left eyes were used alternatively. Collected blood specimens were centrifuged at 6000 rpm, 4° C. for 10 minutes and the plasma samples were separated and stored at −80° C. until analysis.
Formulations were prepared in accordance with the method described in Example 19.
Doses equivalent to 50 mg/kg of Compound 1 were selected for comparison of equimolar doses.
The administration and blood sampling were performed as described in Example 19.
The results for the single dose oral pharmacokinetic study in rats are tabulated in Tables 7 and below and are shown graphically in FIG. 3. In Table 7, the Cmax, Tmax, AUClast, AUCinf, AUCextrap and T1/2 values are for 4-chloro-N-[2-[(4-chlorophenyl)methyl]-3-oxo-1,2,4-thiadiazol-5-yl]benzamide (Compound 1), which was detected following the administration of the compounds.

[2] = Stability in HCl buffer (pH 1.20), 37° C.; assay type: physicochemical; settings: for % remaining compared to 0.0 min: HCl buffer pH 1.20, 37° C.
Procedure: 5 μM solutions of Compound 1 and Compound 4 (i.e. the citric acid salt of Compound 3) in HCl buffer (pH: 1.20) were prepared with 5 mM DMSO stock solutions.

[3] = mice; Das et al. 2019; cited from earlier work
[4] = system: AMPK; assay: Activation of AMPK: Western blot of p-T172 AMPKα in INS-1E insulinoma cells; assay type: cell-based; settings: for ratio between p-T172 AMPK and non-phosphorylated AMPK: INS-1E cells, 4 h, control 1.00
Procedure: INS-1E cells were cultivated as described in Steneberg et al., JCI Insight. 2018; 3(12):e99114. https://doi.org/10.1172/jci.insight.99114, using 5% instead of 10% fetal bovine serum when plated for treatment.
Compound 3 was dissolved at 10 mM in DMSO and frozen at −20° C.
The INS-1E cells were treated in serum free medium with increasing doses of Compound 3 for 4 hours in accordance with the methods described in Steneberg et al., JCI Insight. 2018; 3(12):e99114. https://doi.org/10.1172/jci.insight.99114.
Western blot analysis of the INS-1E cells was performed as described in Steneberg et. al., JCI Insight. 2018; 3(12):e99114. https://doi.org/10.1172/jci.insight.99114. The cell lysates were passed through a 30-gauge needle, ˜8-times and centrifuged for 10 min at +4° C. at 14000 rpm. Quantified values for AMPKα, and phosphorylated-T172 AMPKα, were normalized toward the quantified values for β-Actin.

[5] = Single dose oral pharmacokinetic study of Compounds 1 and 3 in Sprague Dawley rats; assay type: in vivo; settings: equimolar doses
Procedure: 10.0 mL of 2% w/v methyl cellulose solution in phosphate buffer (pH 7.5) was added to a 100 mL conical flask along with 1 g of 2 mm glass beads. The solution was vigorously stirred on a magnetic stirrer. 100 mg of Compound 1 was slowly added to the solution, and the solution was vigorously stirred for approximately 1 h. The pH of the formulation was measured to be 7.49. Each formulation was freshly prepared prior to administration to the animals. The final concentration of Compound 1 in of the formulation was 10 mg/mL. The formulation was administered at 5 mL/kg body weight.
6 mL of 2% w/v methyl cellulose solution in phosphate buffer (pH 7.5) was added to a 25 mL of conical flask together with 1 g of 2 mm glass beads. The solution was vigorously stirred on a magnetic stirrer. 78 mg of Compound 3 was slowly added to the solution, and the solution was vigorously stirred for approximately 1 h. The pH of the formulation was measured to be 7.41. […]
The results for the single dose oral pharmacokinetic study in rats are tabulated in Tables 5 and 6 below and are shown graphically in FIG. 2. In Table 5, the Cmax, Tmax, AUClast, AUCinf, AUCextrap, T1/2 and MRTlast values are for 4-chloro-N-[2-[(4-chlorophenyl)methyl]-3-oxo-1,2,4-thiadiazol-5-yl]benzamide (Compound 1), which was detected following the administration of both Compounds 1 and 3.

[6] = Stability in buffers pH 1.20, 7.40 and 9.20 (Examples 26 and 27)
[7] = for % remaining after 15 min / % remaining after 30 min: buffer; for % remaining after 15 min: 0.25 h; for % remaining after 30 min: 0.5 h
[8] = analyte Compound 1 in plasma, oral, dose equivalent to 50 mg/kg of Compound 1

## 2-({[5-(4-chlorobenzamido)-2-[(4-chlorophenyl)methyl]-3-oxo-1,2,4-thiadiazolidin-4-yl]methoxy}carbonyl)-1-methylpyrrolidine [Compound 10]
[1]; 0.00 h post-dose, oral, equivalent to 50 mg/kg of Compound 1
  Plasma Concentration of Compound 1: 0.00 µg/mL
[1]; 1.00 h post-dose
  Plasma Concentration of Compound 1: 76.70 µg/mL
[1]; 4.00 h post-dose
  Plasma Concentration of Compound 1: 106.37 µg/mL
[1]; 8.00 h post-dose
  Plasma Concentration of Compound 1: 100.53 µg/mL
[1]; 24.00 h post-dose
  Plasma Concentration of Compound 1: 26.77 µg/mL
[1]; [8]
  AUCextrap: 17.81%
  AUCinf: 2120.39 µg·h/mL
  AUClast: 1745.15 µg·h/mL
  Cmax: 114.03 µg/mL
  T1/2: 9.63 h
  Tmax: 5.33 h

## O=C(Nc1nc(=O)n(Cc2ccc(Cl)cc2)s1)c1ccc(Cl)cc1 [Compound 1, 4-chloro-N-[2-[(4-chlorophenyl)methyl]-3-oxo-1,2,4-thiadiazol-5-yl]benzamide, reference compound]
[2]; 0.0 min
  % remaining compared to 0.0 min: 100.00%
[2]; 15 min
  % remaining compared to 0.0 min: 71.32%
[2]; 30 min
  % remaining compared to 0.0 min: 63.05%
[2]; 60 min
  % remaining compared to 0.0 min: 58.77%
[2]; 120 min
  % remaining compared to 0.0 min: 43.04%
[3]
  treating pain (in words): effective at treating pain

## CN(C)CC(=O)OCn1c(=O)n(Cc2ccc(Cl)cc2)s/c1=N\C(=O)c1ccc(Cl)cc1 [Compound 3, Dimethylamino-Acetic Acid 5-[(Z)-4-chloro-benzoylimino]-2-(4-chloro-benzyl)-3-oxo-[1,2,4]thiadiazolidin-4-ylmethyl Ester]
[2]; 0.0 min
  % remaining compared to 0.0 min: 100.00%
[2]; 15 min
  % remaining compared to 0.0 min: 96.92%
[2]; 30 min
  % remaining compared to 0.0 min: 83.74%
[2]; 60 min
  % remaining compared to 0.0 min: 86.54%
[2]; 120 min
  % remaining compared to 0.0 min: 88.31%
[2]; pH 1.2
  stability in acidic solutions (in words): greater stability than Compound 1
[4]; 1.25 μM
  ratio between p-T172 AMPK and non-phosphorylated AMPK: 1.24
[4]; 2.5 μM
  ratio between p-T172 AMPK and non-phosphorylated AMPK: 2.24
[4]; 5 μM
  ratio between p-T172 AMPK and non-phosphorylated AMPK: 5.99
[4]; cultured INS-1E cells
  phosphorylation of AMPK (in words): increases phosphorylation of AMPK in a dose-dependent manner; also recorded: increases phosphorylated-T172 AMPK in a dose-dependent manner
[5]
  increase in systemic exposure of Compound 1 after oral Compound 3 versus oral Compound 1: ten-fold
[6]; buffer pH 1.2
  % remaining after 15 min: 97%
  % remaining after 30 min: 83%
[6]; buffer pH 7.4
  % remaining after 15 min: 46%
  % remaining after 30 min: 16%

## NCCCCC(N)C(=O)OCN1C(=O)N(Cc2ccc(Cl)cc2)SC1NC(=O)c1ccc(Cl)cc1.O=C(O)C(F)(F)F.O=C(O)C(F)(F)F (centres unmarked) [Compound 6, 6-{[5-(4-chlorobenzamido)-2-[(4-chlorophenyl)methyl]-3-oxo-1,2,4-thiadiazolidin-4-yl]methoxy}-6-oxohexane-1,5-bis(aminium) di-trifluoroacetate]
[6]; buffer pH 1.2
  % remaining after 15 min: 83%
  % remaining after 30 min: 86%
[6]; buffer pH 7.4
  % remaining after 15 min: 33%
  % remaining after 30 min: 33%

## NCC(=O)OCn1c(=O)n(Cc2ccc(Cl)cc2)s/c1=N\C(=O)c1ccc(Cl)cc1 [Compound 9, Trifluoroacetate]
[6]; buffer pH 1.2
  % remaining after 15 min: 100%
  % remaining after 30 min: 100%
[6]; buffer pH 7.4
  % remaining after 15 min: 46%
  % remaining after 30 min: 13%

## NC(CC(=O)O)C(=O)OCn1c(=O)n(Cc2ccc(Cl)cc2)s/c1=N/C(=O)c1ccc(Cl)cc1 (centres unmarked) [Compound 17, Trifluoroacetate]
[6]; buffer pH 1.2
  % remaining after 15 min: 76%
  % remaining after 30 min: 82%
[6]; buffer pH 7.4
  % remaining after 15 min: 0%
  % remaining after 30 min: 0%
[6]; pH 1.20, 0.0 min
  Percentage of Compound 17 remaining compared to 0 minutes: 100.00
[6]; pH 1.20, 15.0 min
  Percentage of Compound 17 remaining compared to 0 minutes: 76.19
[6]; pH 1.20, 30.0 min
  Percentage of Compound 17 remaining compared to 0 minutes: 82.37
[6]; pH 1.20, 60.0 min
  Percentage of Compound 17 remaining compared to 0 minutes: 73.33
[6]; pH 1.20, 120.0 min
  Percentage of Compound 17 remaining compared to 0 minutes: 79.04
[6]; pH 1.2, Trifluoroacetate
  stability at pH 1.2 (in words): greatest stability; also recorded: relatively stable
[6]; pH 7.40, 0.0 min
  Percentage of Compound 17 remaining compared to 0 minutes: 100.00
[6]; pH 7.40, 15.0 min
  Percentage of Compound 17 remaining compared to 0 minutes: 0.13
[6]; pH 7.40, 30.0 min
  Percentage of Compound 17 remaining compared to 0 minutes: 0.39
[6]; pH 7.40, 60.0 min
  Percentage of Compound 17 remaining compared to 0 minutes: 0.47
[6]; pH 7.40, 120.0 min
  Percentage of Compound 17 remaining compared to 0 minutes: 2.33
[6]; pH 7.40 / higher pH, Trifluoroacetate
  stability at pH 7.40 and above (in words): degrade rapidly; also recorded: very low
[6]; pH 9.20, 0.0 min
  Percentage of Compound 17 remaining compared to 0 minutes: 100.00
[6]; pH 9.20, 15.0 min
  Percentage of Compound 17 remaining compared to 0 minutes: 0.00
[6]; pH 9.20, 30.0 min
  Percentage of Compound 17 remaining compared to 0 minutes: 0.00
[6]; pH 9.20, 60.0 min
  Percentage of Compound 17 remaining compared to 0 minutes: 0.00
[6]; pH 9.20, 120.0 min
  Percentage of Compound 17 remaining compared to 0 minutes: 0.00

## CN(C)C(=N)N=C(N)N [metformin]
[3]
  treating pain (in words): effective at treating pain

## [azaniumyl({[(4S)-4-azaniumyl-4-[(2-{[5-(4-chlorobenzamido)-2-[(4-chlorophenyl)methyl]-3-oxo-1,2,4-thiadiazolidin-4-yl]methoxy}-2-oxoethyl)carbamoyl]butyl]amino})methylidene]azanium Trichloride [Compound 23]
[7]; pH 1.2
  % remaining after 15 min: 78%
  % remaining after 30 min: 77%
  stability at pH 1.2 (in words): relatively stable
[7]; pH 7.4
  % remaining after 15 min: 0%
  % remaining after 30 min: 0%
  stability at pH 7.40 and above (in words): degrade rapidly
